This is an account of results in patent US8911953B2, “TDF-related compounds and analogs thereof, analogs and bioactive fragments” (Thrasos Innovation, Inc., priority 2005, dated 2014).

In one experiment the test system is NTN mice. The experiment is described as follows: Nephrotoxic serum nephritis (NTN) model of chronic renal failure. It is filed as in vivo, mouse. The note with it: oral 5 mg/kg/24 hr, weeks 6-9. The source says: Attenuation of renal fibrosis progression by TDFRP compound in the chronic renal failure mouse model, nephrotoxic serum nephritis (NTN). A: NTN Model Experimental Protocol. Nephrotoxic serum was given intravenously on Day 0 (D0) and animals were sacrificed either at 6 weeks or 9 weeks. Two different drug regimens were used: treatment from weeks 1-6 or from weeks 6-9. B: Kidney section of 6-9 week, vehicle-treated […] animal, C: Kidney section of animal received oral administration of TDFRP compound (SEQ ID NO 45) (5 mg/kg/24 hr) from weeks 6-9.
Renal fibrosis involves interestitial fibrosis, tubular atrophy, and glomerulosclerosis. The mouse nephrotoxic serum nephritis (NTN) renal fibrosis model mimics human chronic renal injury. NTN mice develop glomerulonephritis following injection with nephrotoxic serum (NTS), which progresses to tubulointerstitial disease and eventually renal fibrosis after 6 weeks (see Lloyd, et al. (1997) J. Exp. Med. 185, 1371-1380.; Zeisberg et al. (2003) Nat. Med. 9, 964-968.)
Nephrotoxic serum nephritis (NTN) is a model of progressive chronic renal injury. Mice given injections of nephrotoxic serum (NTS) develop glomerulonephritis, leading to tubulointerstitial disease associated with EMT, and ultimately renal fibrosis, over a period of about six weeks. […] In these studies, BMP-7 was able to restore expression of E-cadherin proteins in previously damaged tubules. […] For a review of the above see, Zeisberg et al., Nature Medicine, 9; 7 pp 964-968, (2003) and Kalluri et al., J. Clin Investigation 112:1776-1784 (2003).

The subject of experiment [1] is rat osteosarcoma (17/2.8) cells. As to the kind of experiment: Rat osteosarcoma (ROS) cell-based alkaline phosphatase assay. Conditions: 0.02-200 uM, 2 days, relative to BMP-7 standard. As to the method:
BMP interactions with Type I and Type II receptors can induce alkaline phosphatase activity, a marker for osteoblast activity, in ROS cells. An assay procedure as described in Maliakal, J. C., Asahina, I., Hauschka, P. V., and Sampath, T. K. (1994) Growth factors 11, 227-234, was used to determine the biological activities of TDFRP compounds. In a typical experiment, rat osteosarcoma (17/2.8) cells are plated in 96 well plates (3.0×10^4 cells/well) and incubated overnight at 37 C in 5-6% CO2 incubator. The next day, healthy and confluent cells are treated with increasing concentrations of BMP-7 standard (1-10,000 ng/ml) served as positive control or TDFRP compounds (0.02-200 uM) prepared in medium containing 1% FBS and incubated for 2 days at 37 C in 5-6% CO2 incubator. The cellular content of alkaline phosphatase activity is determined by the method of Reddi and Huggins (Reddi, A. H., and Huggins, C. B (1972) Proc. Natl. Acad. Sci. USA 69, 1601-1605). Enzyme estimations are performed in 96 well plates. Following removal of culture medium, cells are washed with pre-warmed PBS (150 ul) and incubated in 100 ul of pre-warmed 1% Triton X-100 for 30 minutes at 37 C. Plates are centrifuged for 10 minutes at full speed, and recovered samples (15 ul) are assayed for enzyme activity by adding 90 ul p-nitrophenyl phosphate (Sigma) as a substrate in 0.05 M glycine-NaOH buffer, pH 9.3 and incubating for 20 minutes at 37 C. The reaction is stopped by adding 75 ul of 0.2 N NaOH/well and absorbance at 405/490 nm is measured on a Dynatech MR 700 plate reader. Results are expressed as relative activities compared to a BMP-7 standard.
BMP interactions with Type I and Type II receptors can induce alkaline phosphatase activity, a marker for osteoblast activity, in ROS cells. An assay procedure as described earlier (Maliakal, J. C., Asahina, I., Hauschka, P. V., and Sampath, T. K. (1994) Growth factors 11, 227-234) was used to determine the biological activities of TDFRP compounds. In a typical experiment, rat osteosarcoma (17/2.8) cells are plated in 96 well plates (3.0×10^4 cells/well) and incubated overnight at 37° C. in 5-6% CO2 incubator. […] The cellular content of alkaline phosphatase activity is determined by the method of Reddi and Huggins (Reddi, A. H., and Huggins, C. B (1972) Proc. Natl. Acad. Sci. USA 69, 1601-1605). […] The reaction is stopped by adding 75 ul of 0.2 N NaOH/well and absorbance at 405/490 nm is measured on a Dynatech MR 700 plate reader. Results are expressed as relative activities compared to a BMP-7 standard.

The test system of another experiment is STZ CD1 mice. As to the kind of experiment: Streptozotocin (STZ)-induced diabetic nephropathy model. The experiment is classed as in vivo, mouse. The note with it: ip 5 mg/kg/24 hr, month 5 through 6. Here is the method:
Reversal of interstitial fibrosis by TDFRP compounds in a CD1 mouse model of streptozotocin (STZ)-induced diabetic nephropathy. A. Schematic of the STZ experimental protocol. Mice were injected with streptozotocin at Day 0 (D0) to induce diabetes and renal injury and sacrificed at 6 months (6M). Vehicle or BMP-7 (positive control) was administered from D0 through 6 months (6M). TDFRP (SEQ ID NO:45) was administered either orally or intraperitoneally from month 5 (5M) through 6M for 30 total days.; B: Kidney section of vehicle-treated STZ animal showing significant interstitial fibrosis; C: Kidney section of STZ animal that received ip administration of TDFRP compound (SEQ ID NO:45) (5 mg/kg/24 hr).
STZ-induced Type 1 diabetes is a widely used experimental model for diabetic nephropathy. Mice given iv STZ develop a progressive loss of pancreatic beta cells culminating in diabetes and renal damage within a six month period of time. In a typical experiment, TDFRP compounds can alleviate fibrosis, reduce proteinuria and protect the kidneys from STZ damage.
The effect of TDFRP compounds on cell damage due to diabetic nephropathy is measured by the method of Wang and coworkers (Wang et al., (2003) 63(6): 2037) (FIG. 8A). Diabetes is induced in 200 g rats by a single dose of streptozotocin.

For experiment [2], the system named is renal tubular epithelial cells. The note with it: 100 ng/ml, 48 hours; cited from earlier work.

Positions of bridges follow the written chain, without caps; N, C: chain ends. No end group written: not given here.

“CYFDDSSNVLCKKYRS (disulfide 1-11 (inferred); not fully specified) [SEQ ID NO:45]”: in the experiment with NTN mice, the glomerulosclerosis result is on record as “attenuated the severity of glomerulosclerosis”, the matrix deposition entry is recorded as “attenuated the amount of matrix deposition” and the tubular atrophy result is “attenuated the severity of tubular atrophy”. The “progression of renal fibrosis” value with NTN mice (5 mg/kg) is on record as “significantly attenuated”. The “induction of alkaline phosphatase activity” value in experiment [1] was “did not induce”. Further, the renal interstitial fibrosis entry with STZ CD1 mice is listed as “effectively reversed”.

B1: BMP-7: recombinant human mature BMP-7 (BMP-7 or TDF-1), positive control therapy (protein)
chain: STGSKQRSQNRSKTPKNQEALRMANVAENSSSDQRQACKKHELYVSFRDLGWQDWIIAPEGYAAYYCEGECAFPLNSYMNATNHAIVQTLVHFINPETVPKPCCAPTQLNAISVLYFDDSSNVILKKYRNMVVRACGCH
As to B1, the “TGF-beta1 induced EMT” value in experiment [2] is listed as “reverses”.
